Legend:
murine GOT1 = target: T1, murine GOT1 (Mus musculus, UniProt P05201); experiment: microscale thermophoresis with labelled recombinant GOT1; supported by purified enzyme inhibition; assay type: binding
T1 construct: recombinant, C-terminal 6 His-tag

[1] = target: GOT1 (aspartate transaminase 1, glutamic-oxaloacetic transaminase 1) (Homo sapiens, UniProt P17174); experiment: microscale thermophoresis with labelled recombinant GOT1; supported by purified enzyme inhibition and kinetics, CETSA and DARTS; assay type: binding
Chain of GOT1 (aspartate transaminase 1, glutamic-oxaloacetic transaminase 1) (P17174 2-413): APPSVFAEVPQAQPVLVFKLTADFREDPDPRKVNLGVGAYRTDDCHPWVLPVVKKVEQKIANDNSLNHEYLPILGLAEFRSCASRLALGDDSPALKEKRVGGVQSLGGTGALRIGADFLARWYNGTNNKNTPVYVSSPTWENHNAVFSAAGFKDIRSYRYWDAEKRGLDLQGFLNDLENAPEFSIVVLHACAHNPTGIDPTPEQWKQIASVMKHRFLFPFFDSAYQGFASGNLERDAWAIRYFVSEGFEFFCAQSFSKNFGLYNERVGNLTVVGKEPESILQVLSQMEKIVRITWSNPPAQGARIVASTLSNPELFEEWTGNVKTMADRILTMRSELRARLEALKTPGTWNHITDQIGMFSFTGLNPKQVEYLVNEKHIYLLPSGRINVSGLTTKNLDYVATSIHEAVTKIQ

T1 sequence (P05201 2-413): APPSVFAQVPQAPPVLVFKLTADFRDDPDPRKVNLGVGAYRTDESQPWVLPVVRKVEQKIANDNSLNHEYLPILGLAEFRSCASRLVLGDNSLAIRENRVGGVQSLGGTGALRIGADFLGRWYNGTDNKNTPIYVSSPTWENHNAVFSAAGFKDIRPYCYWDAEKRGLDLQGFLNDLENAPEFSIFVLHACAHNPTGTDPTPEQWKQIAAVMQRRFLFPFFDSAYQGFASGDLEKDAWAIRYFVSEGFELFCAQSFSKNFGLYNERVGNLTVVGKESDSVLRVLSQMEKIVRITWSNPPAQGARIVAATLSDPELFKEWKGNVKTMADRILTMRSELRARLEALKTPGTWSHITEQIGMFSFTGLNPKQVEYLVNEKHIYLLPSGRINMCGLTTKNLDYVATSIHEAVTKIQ

CC(C)=CCc1cc(/C=C2\OC(=O)C(c3cc(CC=C(C)C)c(O)cc3O)=C2O)ccc1O [AO, 3-[2,4-Dihydroxy-5-(3-methyl-2-buten-1-yl)phenyl]-4-hydroxy-5-[[4-hydroxy-3-(3-methyl-2-buten-1-yl)phenyl]methylene]-2(5H)-furanone]
Kd (murine GOT1): 5.42 ± 1.36 µM | Kd [1]: 3.32 ± 1.18 µM
